Assay [1] deals with MHV-68. Briefly: Survival after lethal intraperitoneal MHV-68 infection of IFNγR−/− mice. Type of assay: in vivo. Conditions: for survival after MHV-68 infection (modified S-7 peptides): MHV-68 infection model; for survival at 150 days: 100 ng/g IP injections for 30 days, no antibiotics, MHV-68 infected IFNγR−/− mice; for median survival: 10 days antibiotic pre-treatment, then MHV-68 infection and 30 days IP treatment; for efficacy after antibiotic treatment versus saline treatment after antibiotics: +Abx vs Saline+Abx, survival. The text has this:
Animals. IFNγR^−/− mice (B6.129S7-Ifngr1^tm1Agt/J) were purchased from the Jackson Laboratory (Bar Harbor, ME, USA). Animals were housed in barrier conditions at the University of Florida Animal Care Services vivarium and bred under specific pathogen-free conditions. Mice were weaned at 3 weeks, maintained on a 12-hour light-dark cycle and were fed water and standard rodent chow ad libitum.
Antibiotic treatment. At 4 weeks of age, IFNγR^−/− mouse cohorts were transferred from the ABSL1 colony to a separate, ABSL2 colony. Gut microbiome suppression was achieved by replacing standard drinking water with autoclaved reverse osmosis water (obtained from the same animal care facility) containing an antibiotic cocktail (Table 1) composed of Streptomycin (2 g/L), Gentamicin (0.5 g/L), Bacitracin (1 g/L) and Ciprofloxacin (0.125 g/L) for 10 days. One day (24 hours) prior to infection, medicated water was replaced with standard animal care facility water, which was maintained for the remainder of the experiment.
MHV-68 infection. On day 11 (after 10 days of antibiotics) mice (5 weeks old) were infected with MHV-68 at a dose of 12.5×10^6 PFU in 0.1 mL DMEM by intraperitoneal (IP) injection as previously described22,25,27,30. Mice were returned to the colony and monitored for signs of distress for the duration of the experiment. Mice were either followed for 150 days to determine survival or euthanized at 3 days post-infection and organs harvested into formalin for histology or RNAlater (Thermo Scientific, USA) for microbiome analyses. Details on the numbers of MHV-68-infected mice in this study are detailed in Table 2.
Statistical analysis. Survival and pathology statistics were analyzed with GraphPad Prism v8.0.1. Kaplan-Meier survival statistics were calculated using Log-rank (Mantel-Cox) testing. For visualization, individual comparison curves are presented. Lung pathology statistics were compared using a Two-Way ANOVA with a Fisher's LSD or Tukey's post-hoc test. Bars are mean±standard error. P-value less than 0.05 was considered significant. *p<0.05, **p<0.01, ***p<0.001, ****p<0.0001; n.s. is not significant.
MHV-68 infections establish latency with chronic infection in wildtype mice, causing only flu-like symptoms. Conversely, intraperitoneal infection of mice with underlying immune deficiency, as for IFNγR^−/− mice, results in a lethal large vessel vasculitis, colitis and hemorrhagic pneumonia with early mortality. Intranasal infection, an alternative model for MHV-68, is not a model for severe vasculitic syndromes. This intraperitoneal infection model of vasculitis has been used to study the pathogenesis of gammaherpesvirus host-pathogen interactions, as well as to investigate the potential for anti-inflammatory treatment of associated inflammatory vasculitic syndromes. Intraperitoneal infection of IFNγR−/− mice with 12.5×10^6 pfu was performed with follow-up for 150 days to determine survival rates. MHV-68 infection with administration of control saline treatment alone for 30 days was lethal, with a median survival of 41 days. […] Thus, Serp-1 and S-7 protect IFNγR−/− mice after lethal MHV-68 infection.
The potential for dependence of Serp-1 and S-7 therapeutic efficacy on the gut bacterial microbiome in MHV-68 infected IFNγR^−/− mice was investigated. Mice were treated with medicated drinking water (Table 1) for 10 days, placed on normal water for 24 hours, then infected with MHV-68 and concurrently treated for 30 days with either Serp-1 or S-7 by IP injection. Mice were followed for survival or 3-day follow-up (FIG. 2A).

The test system of assay [2] is MHV-68. The experiment in a line: MHV-68 antigen immunostaining in lungs at 3 days after infection. Type of assay: in vivo, mice. Conditions: for MHV-68 antigen levels in the lungs: without antibiotic treatment, 3-day follow-up. On the procedure: (§1) Immunohistochemistry. FFPE blocks containing lung tissue were sectioned into 4-6 μm ribbons, captured on charged glass and dried overnight at 37° C. prior to processing. Slides were rehydrated and epitopes retrieved by boiling in sodium citrated buffer. Endogenous peroxidases were quenched with 3% hydrogen peroxide, slides were blocked in 5% bovine serum albumin in TBS/0.1% Tween 20 and sections were probed with rabbit polyclonal antibody against CD3 (Abcam ab5690; 1:200), CD4 (Abcam ab183685; 1:1000) or CD8 (Abcam ab209775; 1:2000). For MHV-68 detection, 1:500 rabbit anti-serum or pre-immune serum (as control) were used for immunostaining (kind gift of Dr. H. W. Virgin 1119). 1:500 goat anti-rabbit HRP was used for secondary staining (Jackson Immuno Research 111-035-144). […] Sections were imaged with a 40×/0.75NA objective.

In assay [3] the test system is MHV-68. Briefly: Lung histopathology and quantitative morphometry at 3 days after MHV-68 infection. The class given is in vivo, mice. Conditions: for severe pulmonary pathology (consolidation and inflammation): absence of antibiotics, vs saline; for severe pulmonary pathology (consolidation and inflammation) / early lung pathology after antibiotic treatment: 3-day follow-up; for alveolar wall thickness: no antibiotics, versus saline-treated controls; for alveolar lumen area: without antibiotic pre-treatment, compared to saline-treated controls. On the procedure: Histopathology. Mice were euthanized at 3 days follow-up after infection by carbon dioxide asphyxiation followed by cervical dislocation. Organs were harvested and fixed in 10% neutral buffered formalin. Samples were dehydrated through graded alcohol, paraffin-embedded, sectioned into 4-6 μm ribbons, captured on charged glass and dried overnight at 37° C. prior to processing for histopathology. Slides were rehydrated, stained with Gill's hematoxylin No. 3 and Eosin Y (H&E) according to standard procedure, dehydrated and mounted in Cytoseal XYL (Thermo Fisher Scientific, USA).
Quantitative morphometry. H&E-stained aorta, lung and colon sections were imaged with a 20×/0.5NA objective on an Olympus BX51 microscope equipped with an Olympus DP74 camera operated by cellSens Dimensions v1.16 software. Objective-calibrated measurements of alveolar septal thickness and lumen area were collected using cellSens Dimensions. At least 50 measurements were collected and averaged for each mouse, and at least three mice were examined for each group. Images were processed for visualization in figures using ImageJ/FIJI v1.52i92.

Assay [4] relates to CD3+, CD4+ and CD8+ cells in the lungs. The experiment in a line: Immunohistochemistry of CD3+, CD4+, CD8+ cells in lungs at 3 days after MHV-68 infection. Type of assay: in vivo, mice. Conditions: for CD3 infiltration-promoting effect and CD8 bias after antibiotic treatment: after antibiotic depletion of gut microbiome; for CD8+ staining in lungs / detectable CD3+ cells in the lungs / pulmonary CD4+ cells: no antibiotics, 3-day follow-up. On the procedure: as §1

Assay [5] concerns the target uPA (Homo sapiens, UniProt P00749). The experiment in a line: In vitro uPA substrate conversion assay. Conditions: presence of the antibiotic cocktail. Type of assay: biochemical.

“Also recorded” adds a separate entry of the source.

As to “GTTASSDTAITLEPR (Modified S-7 peptide MPS7-8)”, the “survival after MHV-68 infection (modified S-7 peptides)” value in assay [1] is listed as “improved survival”.
In the case of “GTTASSDTAITLIPR (Reactive Center Loop Polypeptide sequence of for a serine protease inhibitor) [S-7]”, in assay [2], the “decrease in detectable MHV68 after antibiotic pre-treatment” value was “partially reversed” and the “MHV-68 antigen levels in the lungs” value was “significantly reduced”. In addition, in assay [1], the “survival at 150 days” value is listed as 60%, the median survival is 18 days and the “efficacy after antibiotic treatment versus saline treatment after antibiotics” value is “not significantly different”. In addition, in assay [3], the “severe pulmonary pathology (consolidation and inflammation)” value is listed as “considerably reduced”; the “early lung pathology after antibiotic treatment” value is recorded as “markedly worse”; the alveolar wall thickness result was “significant reduction”; the alveolar lumen area entry was “significantly increased”. Moreover, in assay [3] (after antibiotics), the “alveolar lumen area protection after antibiotic treatment” value is “nullified any level of protection” and the “reduction in alveolar wall thickness after treatment with antibiotics” value is reported as “lost”. Further, in assay [4], the “CD3 infiltration-promoting effect and CD8 bias after antibiotic treatment” value is listed as “loss”; the “CD8+ staining in lungs” value is reported as “significant increases”; the “detectable CD3+ cells in the lungs” value was “significantly increased”; the “pulmonary CD4+ cells” value is given as “no appreciable effect”.
Take “GTTASSDTAITDEPR (Modified S7 peptide MPS7-9)”: the “survival after MHV-68 infection (modified S-7 peptides)” value in assay [1] is “improved survival”.

B1: Serp-1: secreted myxomavirus-derived serine protease inhibitor (serpin), purified protein, SEQ ID NO: 1 (protein)
chain: MKYLVLVLCLTSCACRDIGLWTFRYVYNESDNVVFSPYGLTSALSVLRIAAGGNTKREIDVPESVVEDSDAFLALRELFVDASVPLRPEFTAEFSSRFNTSVQRVTFNSENVKDVINSYVKDKTGGDVPRVLDASLDRDTKMLLLSSVRMKTSWRHVFDPSFTTDQPFYSGNVTYKVRMMNKIDTLKTETFTLRNVGYSVTELPYKRRQTAMLLVVPDDLGEIVRALDLSLVRFWIRNMRKDVCQVVMPKFSVESVLDLRDALQRLGVRDAFDPSRADFGQASPSNDLYVTKVLQTSKIEADERGTTASSDTAITLIPRNALTAIVANKPFMFLIYHKPTTTVLFMGTIT
modifications: Serp-1 recombinant polypeptide
B1: in assay [2], the “decrease in detectable MHV68 after antibiotic pre-treatment” value is reported as “partially reversed” and the “MHV-68 antigen levels in the lungs” value is reported as “significantly reduced”. In assay [1], the “survival at 150 days” value came out at 60%, the median survival is reported as 19 days and the “efficacy after antibiotic treatment versus saline treatment after antibiotics” value is given as “not significantly different”. In assay [3], the “severe pulmonary pathology (consolidation and inflammation)” value is listed as “considerably reduced”; the “early lung pathology after antibiotic treatment” value is “markedly worse”; the alveolar wall thickness entry is given as “significant reduction”; the alveolar lumen area result is listed as “trend toward an increase”. In addition, the “reduction in alveolar wall thickness after treatment with antibiotics” value in assay [3] (after antibiotics) is “lost”. Further, in assay [5], the “inhibition of uPA activity in presence of broad-spectrum antibiotic cocktail” value is given as “unaffected; also recorded: not affected”. Further, in assay [4], the “CD3 infiltration-promoting effect and CD8 bias after antibiotic treatment” value is “loss”; the “CD8+ staining in lungs” value was “strong trend towards increase”; the “detectable CD3+ cells in the lungs” value was “trended towards increasing”; the “pulmonary CD4+ cells” value was “no appreciable effect”.

Values taken from US12029777B2, “Serine proteinase inhibitors: Serp-1 and Serp-1 RCL-derived peptides effect on microbiome composition and uses thereof” (ARIZONA BOARD OF REGENTS ON BEHALF OF ARIZONA STATE …, priority 2019, dated 2024).
